Laboratory results: US20220145264A1, “CULTURE MEDIUM FOR MAMMALIAN EXPANDED POTENTIAL STEM CELLS, COMPOSITION, AND METHODS THEREOF” (THE UNIVERSITY OF HONG KONG, priority 2019, published 2022)

Key:
[1] = tested on: Dox-dependent porcine iPSCs; experiment: Dox removal from Dox-dependent porcine iPSCs; type: cell-based; conditions: upon Dox removal
Procedure: Germany Landrace and China TAIHU OCT4-TD-tomato [2] Porcine fetal fibroblasts (PFFs) were plated on gelatinized 15-cm tissue culture plates and cultured in M20 media. They were trypsinized with 0.25% trypsin/EDTA solution (Gibco, Cat. No. 25500-054) and harvested for electroporation at 80% confluence. M20: knockout DMEM (Gibco, Cat. No. 10829-018), 20% FBS (Gibco, Cat. No. 10270), 1× Glutamine Penicillin-Streptomycin (Thermo Fisher Scientific, Cat. No. 11140-050) and 1×NEAA (Thermo Fisher Scientific, Cat. No. 10378-016). The transfections were performed using an Amaxa Nucleofector machine (Lonza) according to the manufacturer's protocol (NHDF Nucleofector® Kit, Cat. No. VPD-1001, program U-20). piggyBac transposition was used to achieve stable integration of reprogramming factors. The expression of the reprogramming factors was under the transcriptional control of the tetO2 tetracycline/doxycycline inducible promoter. 1.5 million PFFs and 6.0 μg DNA (2.0 μg PB-TRE-pOSCK, Porcine OCT4, SOX2, cMYC and KLF4; 1.0 μg PB-TRE-pNhL, 1.0 μg PB-TRE-hRL: human RARG and TRH1, 1.0 μg PB-EF1a-transposase and 1.0 μg PB-EF1a-rTTA) were used in each electroporation reaction. PB-TRE-pOSCK: cDNAs of porcine OCT4, SOX2, cMYC and KLF4 linked by 2A sequence were expressed as a single transcript from the tetO2 promoter. […]

H1-EPSCs = experiment: Requirement of individual culture components for hEPSCs (RT-qPCR, AP+ colony formation); type: cell-based, human; conditions: withdrawal from medium, human EPSCs
Procedure: (§1) Porcine and human EPSC cultures were routinely maintained on STO feeders. STO feeder plates were prepared 3-4 days before passaging by thawing and plating the mitomycin C inactivated STO cells on 0.1% gelatinised plates at the density of ˜1.1×10^4 cells/cm^2. Porcine/human EPSC cells were maintained on STO feeder layers and enzymatically passaged every 3-5 days by a brief PBS wash followed by treatment for 3-5 minutes with 0.25% trypsin/EDTA (Gibco, Cat. No. 25500-054). The cells were dissociated and centrifuged (300 g×5 minutes) in M10 medium. M10: knockout DMEM (Gibco, Cat. No. 10829-018), 10% FBS (Gibco, Cat. No. 10270), 1× Glutamine Penicillin-Streptomycin (Thermo Fisher Scientific, Cat. No. 11140050) and 1×NEAA (Thermo Fisher Scientific, Cat. No. 10378-016). After removing supernatant, the porcine/human EPSCs were re-suspended and seeded in pEPSCM/hEPSCM supplemented with 5 μM ROCK inhibitor Y-27632 (Tocris, Cat. No. 1254). 5% FBS (Gibco, Cat. No. 10270) and 10% KnockOut Serum Replacement (KSR) (Gibco, Cat. No. 10828028) were added in pEPSCM and hEPSCM respectively to improve cells survive. 12-24 hours later, medium was switched to pEPSCM/hEPSCM only. Both pEPSCM and hEPSCM are N2B27 based media. N2B27 basal media (500 ml) was prepared by inclusion of the following components: 482.5 ml DMEM/F-12 (Gibco, Cat. No. 21331-020), 2.5 ml N2 supplement (Thermo Fisher Scientific, Cat. No. 17502048), 5 ml B27 supplement (Thermo Fisher Scientific, Cat. No. 17504044), 5 ml 1× Glutamine Penicillin-Streptomycin (Thermo Fisher Scientific, Cat. No. 11140-050), and 5 ml 1×NEAA (Thermo Fisher Scientific, Cat. No. 10378-016), 0.1 mM 2-mercaptoethanol (Sigma, Cat. No. M6250). pEPSCM (500 ml) was generated by adding the following small molecules and cytokines into 500 ml N2B27 basal media: 0.2 μM CHIR99021(GSK3i, TOCRIS, Cat. No. 4423), 1 μM WH-4-023 (SRC inhibitor, TOCRIS, Cat. No. 5413), 2.5 μM XAV939 (Sigma, Cat. No. X3004) or 2.5 μM IWR-1 (TOCRIS, Cat. No. 3532), […] Vitamin C (Sigma, Cat. No. 49752-100G), 10 ng/ml LIF (Stem Cell Institute, University of Cambridge. SCI) and 20 ng/ml ACTIVIN (SCI). hEPSCM (500 ml) was generated by adding the following components into 500 ml N2B27 basal media: 1.0 μM CHIR99021(GSK3 inhibitor, TOCRIS, Cat. No. 4423), 0.5 μM A-419259 (SRC inhibitor, TOCRIS, Cat. No. 3914), 2.5 μM XAV939 (Sigma, Cat. No. X3004), […] Vitamin C (Sigma, Cat. No. 49752-100G), 10 ng/ml LIF (SCI). Although both targeting SRC family kinases (SFKs), WH-4-023 and A419259 were preferred for porcine and human EPSCs, respectively. […] The concentrations of CHIR99021 for porcine and human EPSC cultures are 0.2 μM and 1.0 μM, respectively. […] 0.25 μM SB 590885 (BRAF inhibitor, R&D, Cat. No. 2650) and 2.0 μM SP600125 ([…], TOCRIS, Cat. No. 1496) were included to improve porcine and human EPSC cultures, but they were not essential for the routine maintenance of porcine and human EPSCs. All cell cultures in this paper were performed under conditions of 37° C. and 5% CO2 unless stated otherwise.
(§2) Total RNA was isolated using an RNeasy Mini Kit (Qiagen, Cat. No. 74106) for cultured cells or RNeasy Micro Kit (Qiagen, Cat. No. 74034) for sorted NANOS3-mCherry^+ cells. RNA was subsequently quantified and treated with gDNA WipeOut to remove genomic DNA. Complementary DNA (cDNA) was prepared using a QuantiTect Reverse Transcription Kit (Qiagen, Cat. No. 205311). RT-qPCR primers or TaqMan Gene Expression Assays (Life Technologies) are listed in Supplementary Table 10 and 11. ABsolute Blue qPCR ROX Mix (ABgene, Cat. No. AB4138B) were used for probe based qPCR assays and SYBR Green ROX qPCR Mastermix (Qiagen, Cat. No. 330523) were used for primer based qPCR assays. All qPCR reactions were performed on ABI 7900 HT Sequence Detection System (Life Technologies). Information on all primers and probes used for qPCR analysis are provided in Supplementary Table 10 and 11. Gene expression was determined relative to GAPDH using the […]. […]

AXIN1 [2] = experiment: Western blot analysis of AXIN1 in human EPSCs; type: cell-based
Procedure: (§3) Whole-cell extracts were prepared from cells with indicated treatments in lysis buffer composed of 50 mM Tris-HCl (pH 7.5), 0.15M NaCl, 0.1% SDS, 1% Triton X-100, 1% sodium deoxycholate and complete mini EDTA free protease inhibitor cocktail (Roche Applied Science, Cat. No. 11836170001). The cells for the experiment were collected from the same batch of culture when the culture had reached 70-80% confluence. The biological replicates were included to allow the meaningful conclusions. 10 μg protein were used for electrophoresis and transferred to nitrocellulose membranes. Membranes were blocked with 5% milk and treated with antibodies. Primary antibodies of mouse or rabbit anti AXIN1, SMAD2/3, p-SMAD2/3 and ALPHA-TUBULIN were used. Horseradish peroxidase-conjugated secondary antibodies against rabbit or mouse IgG were added. After antibody treatment, blots were developed using ECL Western Blotting Detection System (Thermo Fisher Scientific, Cat. No. 32106). The antibodies used in these experiments is provided in Supplementary Table 9.

canonical Wnt signalling [3] = experiment: TOPflash luciferase assay in human EPSCs; type: cell-based
Procedure: (§4) For the TOPflash assay, 2.0×10^6 cells were transfected with 10 μg TOPflash plasmid. 5 μg pRL-TK (Renilla) vectors were also transfected for normalization. Cells were split 1:9 into a 24-well plate in pEPSCM and hEPSCM with or without XAV939 (WNTi, 2.5 μM, Cat. No. X3004) for 48 h. Cell lysates were collected for luciferase assays. For determining the regulation pattern of Oct4 expression in porcine EPSCs, 10 μg reporter constructs were electroporated into 1.5×10^6 pEPSCs with 5 μg pRL-TK. Assays were performed 48 h later. All luciferase assays were performed using the Dual-Glo Luciferase Assay System (Promega, Cat. No. E2920).

canonical Wnt signalling [4] = experiment: TOPflash luciferase assay in porcine EPSCs; type: cell-based
Procedure: as §4

pEPSCs^Emb = experiment: Requirement of individual culture components for pEPSCs (RT-qPCR, AP+ colony formation); type: cell-based, porcine; conditions: withdrawal from medium, porcine EPSCs
Procedure: as §1, §2

AXIN1 [5] = experiment: Western blot analysis of AXIN1 in porcine EPSCs; type: cell-based
Procedure: as §3

Row | Structure (SMILES) | time to differentiation of iPSCs [1] [days] | state of EPSCs on withdrawal of the compound (H1-EPSCs) | AXIN1 protein content (AXIN1 [2]) | canonical WNT activities (canonical Wnt signalling [3]; human EPSCs) | TOPflash activity (canonical Wnt signalling [3]; removing XAV939 from hEPSCM for 5 days) | canonical WNT activities (canonical Wnt signalling [4]; porcine EPSCs) | TOPflash activity (canonical Wnt signalling [4]; removing XAV939 from pEPSCM for 5 days) | state of EPSCs on withdrawal of the compound (pEPSCs^Emb) | AXIN1 protein content (AXIN1 [5])
1 | C[C@H]1c2cccc(O)c2C(=O)C2=C(O)[C@]3(O)C(=O)C(C(N)=O)=C(O)[C@@H](N(C)C)[C@@H]3[C@@H](O)[C@@H]21 [Dox, Doxycycline] | 4 to 5 |  |  |  |  |  |  |  | 
2 | Oc1nc(-c2ccc(C(F)(F)F)cc2)nc2c1CSCC2 [XAV939] |  | collapse and differentiation | enhanced | reduced | substantially increased | reduced | substantially increased | collapse and differentiation | enhanced
